Broadly, the IC50 is the concentration at which inhibition is half-maximal.

The structures appear in SMILES notation. Like-named read-outs stand apart in the source and are kept apart here.

The source of these data is patent US7989438B2, “Therapeutic compounds” (Istituto di Ricerche di Biologia Molecolare P. Angeletti SpA, priority 2007, dated 2011).

The test system of this assay is HCV subgenomic replication. The experiment in a line: Cell based HCV replication assay (subgenomic replicon in Huh-7 cells, NS3 Cell-ELISA). To be noted: activity ranges. An excerpt:
Cell clones that stably maintain subgenomic HCV replicon were obtained by transfecting Huh-7 cells with an RNA replicon identical to I377neo/NS3-3′/wt described by Lohmann et al. (1999) (EMBL-genbank No. AJ242652), followed by selection with neomycin sulfate (G418). Viral replication was monitored by measuring the expression of the NS3 protein by an ELISA assay performed directly on cells grown in 96 wells microtiter plates (Cell-ELISA) using the anti-NS3 monoclonal antibody 10E5/24 (as described in published International application WO 02/59321). Cells were seeded into 96 well plates at a density of 10^4 cells per well in a final volume of 0.1 ml of DMEM/10% FCS. Two hours after plating, 50 μl of DMEM/10% FCS containing a 3× concentration of inhibitor were added, cells were incubated for 96 hours and then fixed for 10 minutes with ice-cold isopropanol. Each condition was tested in duplicate and average absorbance values were used for calculations. The cells were washed twice with PBS, blocked with 5% non-fat dry milk in PBS+0.1% Triton X100+0.02% SDS (PBSTS) and then incubated o/n at 4° C. with the 10E5/24 mab diluted in Milk/PBSTS. After washing 5 times with PBSTS, the cells were incubated for 3 hours at room temperature with Fc specific anti-mouse IgG conjugated to alkaline phosphatase (Sigma), diluted in Milk/PBSTS. After washing again as above, the reaction was developed with p-Nitrophenyl phosphate disodium substrate (Sigma) and the absorbance at 405/620 nm read at intervals. For calculations, we used data sets where samples incubated without inhibitors had absorbance values comprised between 1 and 1.5. The inhibitor concentration that reduced by 50% the expression of NS3 (IC50) was calculated by fitting the data to the Hill equation, Fraction inhibition=1−(Ai−b)/(A0−b)=[I]^n/([I]^n+[…]) where: • Ai=absorbance value of HBI10 cells supplemented with the indicated inhibitor concentration. • A0=absorbance value of HBI10 cells incubated without inhibitor. • b=absorbance value of Huh-7 cells plated at the same density in the same microtiter plates and incubated without inhibitor. • n=Hill coefficient.
(In general: In antiviral work, replicon cells carry a viral genome segment that copies itself.)

Setting [1] is: Hepatitis C virus, Table A, Huh-7 replicon cells, 96 hours, read-out: IC50 (nM), Inhibition of HCV subgenomic replication.
The mark [2] stands for this setting: Table A, Huh-7 replicon cells, 96 hours, read-out: IC50 (nM), Inhibition of HCV subgenomic replication.
The mark [3] stands for this setting: Table 1, 16 membered macrocycles, read-out: IC50* (nM), Inhibition of HCV subgenomic replication.

As to `O=C1NS(=O)(=O)N2CCN(CCN3CC4(COc5ccccc5-c5c(C6CCCCC6)c6ccc1cc6n5C4)C3)CC2` [Compound A23, 31-cyclohexyl-8-oxa-24-thia-1,4,16,23,25-pentaazaheptacyclo[23.2.2.1^4,6.1^6,16.1^15,18.1^17,21.0^9,14]tritriaconta-9,11,13,15(31),17(30),18,20-heptaen-22-one 24,24-dioxide], the IC50 under setting [1] lay in the range of 25 to 150 nM.

On to `CN1CCN(C)C2COc3ccccc3-c3c(C4CCCCC4)c4ccc(cc4n3C2)C(=O)NS(=O)(=O)N(C)C(C)(C)C1` [Compound A24, (7R)-14-cyclohexyl-18,19,19,21,24-pentamethyl-7,8-dihydro-6H-7,11-(epiminoethanoiminoethanoiminothioiminomethano)indolo[1,2-e][1,5]benzoxazocin-15-one 17,17-dioxide], for which the IC50 under setting [2] is 25 to 150 nM.

On to `CN1CCCC2COc3ccccc3-c3c(C4CCCCC4)c4ccc(cc4n3C2)C(=O)NS(=O)(=O)N(C)CC1` [Compound A25, (7R)-14-cyclohexyl-18,21-dimethyl-7,8-dihydro-6H-7,11-(propanoiminoethanoiminothioiminomethano)indolo[1,2-e][1,5]benzoxazocin-15-one 17,17-dioxide], for which the IC50 under setting [2] is less than 25 nM.

Turning to `CCN1CCN(C)C2COc3c(CN4CCCCC4)cccc3-c3c(C4CCCCC4)c4ccc(cc4n3C2)C(=O)NS(=O)(=O)N(C)CC1` [Compound A26, (7R)-14-cyclohexyl-21-ethyl-18,24-dimethyl-4-(piperidin-1-ylmethyl)-7,8-dihydro-6H-7,11-(epiminoethanoiminoethanoiminothioiminomethano)indolo[1,2-e][1,5]benzoxazocin-15-one 17,17-dioxide], the IC50 under setting [2] was less than 25 nM.

Consider `COc1cccc2c1OCC1Cn3c-2c(C2CCCCC2)c2ccc(cc23)C(=O)NS(=O)(=O)N(C)CCNCCN1C` [Compound A27, (7R)-14-cyclohexyl-4-methoxy-18,24-dimethyl-7,8-dihydro-6H-7,11-(epiminoethanoiminoethanoiminothioiminomethano)indolo[1,2-e][1,5]benzoxazocin-15-one 17,17-dioxide], for which, under setting [2], the concentration for half-maximal inhibition (IC50) was less than 25 nM.

For the compound `CCN1CCN(C)C2COc3c(OC)cccc3-c3c(C4CCCCC4)c4ccc(cc4n3C2)C(=O)NS(=O)(=O)N(C)CC1` [Compound A28, (7R)-14-cyclohexyl-21-ethyl-4-methoxy-18,24-dimethyl-7,8-dihydro-6H-7,11-(epiminoethanoiminoethanoiminothioiminomethano)indolo[1,2-e][1,5]benzoxazocin-15-one 17,17-dioxide], the IC50 under setting [2] was less than 25 nM.

`COc1cccc2c1OCC1Cn3c-2c(C2CCCCC2)c2ccc(cc23)C(=O)NS(=O)(=O)N(C)CCN(Cc2cnn(C)c2)CCN1C` [Compound A29, (7R)-14-cyclohexyl-4-methoxy-18,24-dimethyl-21-[(1-methyl-1H-pyrazol-4-yl)methyl]-7,8-dihydro-6H-7,11-(epiminoethanoiminoethanoiminothioiminomethano)indolo[1,2-e][1,5]benzoxazocin-15-one 17,17-dioxide]: the IC50 under setting [2] was less than 25 nM.

Consider `CNC(=O)CN1CCN(C)CCN(C)S(=O)(=O)NC(=O)c2ccc3c(C4CCCCC4)c4n(c3c2)CC1COc1ccccc1-4` [Compound A30, 2-[(7R)-14-cyclohexyl-18,21-dimethyl-17,17-dioxido-15-oxo-7,8-dihydro-6H-7,11-(epiminoethanoiminoethanoiminothioiminomethano)indolo[1,2-e][1,5]benzoxazocin-24-yl]-N-methylacetamide], for which the 50% inhibitory concentration (IC50) under setting [2] lay within 25 to 150 nM.

As to `CN(C)CCN1CCC(C)(C)CCN(C)S(=O)(=O)NC(=O)c2ccc3c(C4CCCCC4)c4n(c3c2)CC1COc1ccccc1-4` [Compound A31, (7R)-14-cyclohexyl-24-[2-(dimethylamino)ethyl]-18,21,21-trimethyl-7,8-dihydro-6H-7,11-(epiminopentanoiminothioiminomethano)indolo[1,2-e][1,5]benzoxazocin-15-one 17,17-dioxide], under setting [2], the half-maximal inhibitory concentration (IC50) was less than 25 nM.

In the case of `CN1CCN(C)C2COc3c(OCCN4CCCC4)cccc3-c3c(C4CCCCC4)c4ccc(cc4n3C2)C(=O)NS(=O)(=O)N(C)CC1` [Compound A32, (7R)-14-cyclohexyl-18,21,24-trimethyl-4-(2-pyrrolidin-1-ylethoxy)-7,8-dihydro-6H-7,11-(epiminoethanoiminoethanoiminothioiminomethano)indolo[1,2-e][1,5]benzoxazocin-15-one 17,17-dioxide], the IC50 under setting [2] was less than 25 nM.

With `O=C1NS(=O)(=O)N2CCN(CCCC3COc4ccccc4-c4c(C5CCCCC5)c5ccc1cc5n4C3)CC2` (stereo not shown) [Compound A34, 30-cyclohexyl-18-oxa-2-thia-1,3,10,24-tetraazahexacyclo[22.2.2.1^5,9.1^8,11.1^10,20.0^12,17]hentriaconta-5(31),6,8,11(30),12,14,16-heptaen-4-one 2,2-dioxide], under setting [1], the concentration for half-maximal inhibition (IC50) is 25 to 150 nM.

On to `CN1CCCN(C)S(=O)(=O)NC(=O)c2ccc3c(C4CCCCC4)c4n(c3c2)CC(CC1)COc1ccccc1-4` (stereo not shown) [Example 101, 14-cyclohexyl-18,22-dimethyl-7,8-dihydro-6H-7,11-(ethanoiminopropanoiminothioiminomethano)indolo[1,2-e][1,5]benzoxazocin-15-one 17,17-dioxide], for which the IC50 under setting [3] lay within 25 to 150 nM.

On to `CN1CCN(CCOCc2ccccc2)CCN(C)S(=O)(=O)NC(=O)c2ccc3c(C4CCCCC4)c4n(c3c2)CC1COc1ccccc1-4` [Example 102, (7R)-21-[2-(benzyloxy)ethyl]-14-cyclohexyl-18,24-dimethyl-7,8-dihydro-6H-7,11-(epiminoethanoiminoethanoiminothioiminomethano)-indolo[1,2-e][1,5]benzoxazocin-15-one 17,17-dioxide], for which, under setting [3], the IC50 was less than 25 nM.

`CN1CCN(CCO)CCN(C)S(=O)(=O)NC(=O)c2ccc3c(C4CCCCC4)c4n(c3c2)CC1COc1ccccc1-4` [Example 103, (7R)-14-cyclohexyl-21-(2-hydroxyethyl)-18,24-dimethyl-7,8-dihydro-6H-7,11-(epiminoethanoiminoethanoiminothioiminomethano)-indolo[1,2-e][1,5]benzoxazocin-15-one 17,17-dioxide]: the IC50 under setting [3] was less than 25 nM.

For the compound `CC(C)CN1CCN(C)C2COc3ccccc3-c3c(C4CCCCC4)c4ccc(cc4n3C2)C(=O)NS(=O)(=O)N(C)CC1` [Example 104, (7R)-14-cyclohexyl-21-isobutyl-18,24-dimethyl-7,8-dihydro-6H-7,11-(epiminoethanoiminoethanoiminothioiminomethano)-indolo[1,2-e][1,5]benzoxazocin-15-one 17,17-dioxide], the IC50 under setting [3] is less than 25 nM.

Take `CN(C)CC(=O)N1CCN(C)[C@H]2COc3ccccc3-c3c(C4CCCCC4)c4ccc(cc4n3C2)C(=O)NS(=O)(=O)N(C)CC1` [Example 105, (7R)-14-cyclohexyl-21-(N,N-dimethylglycyl)-18,24-dimethyl-7,8-dihydro-6H-7,11-(epiminoethanoiminoethanoiminothioiminomethano)-indolo[1,2-e][1,5]benzoxazocin-15-one 17,17-dioxide]: under setting [3], the half-inhibitory concentration (IC50) is less than 25 nM.

In the case of `CCN1CCN(C)C2COc3ccccc3-c3c(C4CCCCC4)c4ccc(cc4n3C2)C(=O)NS(=O)(=O)N(CCO)CC1` [Example 106, (7R)-14-cyclohexyl-21-ethyl-18-(2-hydroxyethyl)-24-methyl-7,8-dihydro-6H-7,11-(epiminoethanoiminoethanoiminothioiminomethano)-indolo[1,2-e][1,5]benzoxazocin-15-one 17,17-dioxide], under setting [3], the IC50 was less than 25 nM.

As to `CCN1CCN(CC)C2COc3ccccc3-c3c(C4CCCCC4)c4ccc(cc4n3C2)C(=O)NS(=O)(=O)N(C)CC1` [Example 107, (7R)-14-cyclohexyl-21,24-diethyl-18-methyl-7,8-dihydro-6H-7,11-(epiminoethanoiminoethanoiminothioiminomethano)-indolo[1,2-e][1,5]benzoxazocin-15-one 17,17-dioxide], the 50% inhibitory concentration (IC50) under setting [3] was less than 25 nM.

Regarding `CN1CCN(Cc2ccccc2)CCN(C)S(=O)(=O)NC(=O)c2ccc3c(C4CCCCC4)c4n(c3c2)CC1Cc1ccccc1-4` (stereo not shown) [Example 201, 20-benzyl-13-cyclohexyl-17,23-dimethyl-6,7-dihydro-5H-6,10-(epiminoethanoiminoethanoiminothioiminomethano)-indolo[2,1-a][2]benzazepin-14-one 16,16-dioxide], where the note is “Table 2, various macrocycles, read-out: IC50* (nM), Inhibition of HCV subgenomic replication”, the IC50 is more than 500 nM.
